In brackets after ≈: the same amount, converted by molar mass. Read-outs that look alike come from different tables or passages of the source.
Experiments:
mice = settings: cited from earlier work
[1] = Pharmacokinetics of S-PAC-1 in lymphoma bearing dogs; assay type: in vivo, dog; settings: continuous infusion
Source text: In addition, blood was collected from all pet dogs at each scheduled follow up visit to characterize hematologic and non-hematologic toxicity. Between administrations, patients were monitored by pet owners for gastrointestinal toxicity observational scores adhering the Veterinary Co-operative oncology group common terminology and criteria for adverse events (VCOG_CTCAE) (44).

[2] = Solubility in β-cyclodextran; assay type: physicochemical
[3] = biological target: T1, procaspase-3(D9A/D28A/D175A) mutant (Homo sapiens, UniProt P42574, D175A/D28A/D9A); experiment: Procaspase-3 D3A mutant activity in the presence of zinc; assay type: biochemical; settings: 10 μM zinc, S-PAC-1 added, monitored at 15 minute intervals
T1 construct: 6xHis (C); made in house; host or cells: Escherichia coli BL21(DE3) (printed for procaspase-3 in general, not for the mutant by name)
T1 sequence (P42574 1-277 D9A/D28A/D175A): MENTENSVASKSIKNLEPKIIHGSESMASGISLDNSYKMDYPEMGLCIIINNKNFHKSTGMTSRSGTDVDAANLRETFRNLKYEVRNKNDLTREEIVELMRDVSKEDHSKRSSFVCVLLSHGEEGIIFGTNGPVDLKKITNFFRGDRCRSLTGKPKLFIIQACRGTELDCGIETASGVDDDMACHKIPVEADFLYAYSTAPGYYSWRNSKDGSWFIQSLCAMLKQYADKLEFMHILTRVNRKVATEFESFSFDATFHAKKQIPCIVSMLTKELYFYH
Source text: Zinc ions are known to inhibit procaspase-3. […] The effect of a range of concentrations of zinc on caspase-3 and procaspase-3 enzymatic activity was examined. All buffers were first treated with Chelex® resin to remove any trace metal contaminants. […] To ensure that the activity of the proenzyme was being monitored, a proteolytically uncleavable mutant of procaspase-3 (in which the three aspartic acid cleavage site residues are mutated to alanine (D9A/D28A/D175A)) was used (24,32).

[4] = Continuous-rate infusion pharmacokinetics in healthy research dogs; assay type: in vivo; settings: hound, dog, plasma, continuous intravenous infusion, read-out: steady state plasma concentration
Procedure: Each dog received an initial loading dose via i.v. infusion over the course of 10 minutes followed by a maintenance dosage delivered by an infusion pump for an additional 24 hours.

[5] = Pharmacokinetics of S-PAC-1 i.p. in mice; assay type: in vivo, mouse; settings: C57/BL6 mice, 125 mg/kg i.p.
Source text: Mice were sacrificed and blood drawn at varying time points after administration. Blood samples were centrifuged and the serum was collected and analyzed by liquid chromatography to determine drug concentration.

EL-4 = experiment: Cytotoxicity in EL-4 cells (sulforhodamine B, 72 h); assay type: cell-based; settings: EL4, EL-4, Mouse Lymphoma
17-71 = experiment: Cytotoxicity in 17-71 cells (MTS cell viability assay); assay type: cell-based; settings: Canis lupus familiaris, 17-71, Dog Lymphoma
[6] = test system: healthy research hound dog; experiment: Neurotoxicity in dogs; assay type: in vivo
Source text: Further information about this compound is described elsewhere herein.

C57/BL6 mice = experiment: Neurotoxicity in mice after intravenous administration; assay type: in vivo, mouse; settings: for Neurotoxicity: Mice, preliminary results
[7] = Formulation of PAC-1 in aqueous 2-hydroxypropyl-β-cyclodextrin; assay type: physicochemical
Source text: Formulation of PAC-1. […] Complete dissolution requires acidification of the aqueous solution to pH 1.5-2, and then the solution is restored to pH 5-6.

HeLa = experiment: Cytotoxicity in HeLa cells (sulforhodamine B, 72 h); assay type: cell-based; settings: Human Cervical
SK-Mel-5 = experiment: Cytotoxicity in SK-Mel-5 cells (sulforhodamine B, 72 h); assay type: cell-based; settings: SK-Mel-5, Human Melanoma
OSW = experiment: Cytotoxicity in OSW cells (sulforhodamine B, 72 h); assay type: cell-based; settings: Canis lupus familiaris, Dog Lymphoma
MDA-MB-231 = experiment: Cytotoxicity in MDA-MB-231 cells (sulforhodamine B, 72 h); assay type: cell-based; settings: MDA-MB-231, Human Breast
Jurkat = experiment: Cytotoxicity in Jurkat cells (sulforhodamine B, 72 h); assay type: cell-based; settings: Human Leukemia
U-937 cells = experiment: Induction of apoptosis, annexin V/PI staining; assay type: cell-based, human; settings: 50 μM, 12 hours
Procedure: The cells were centrifuged (200 g for 5 min), washed with PBS (2 mL), resuspended in 500 μL Annexin V Binding Buffer. To each sample was added 10 μL of FITC conjugated Annexin V stain (Southern Biotech) and 10 μL of propidium iodide (Sigma) to a final concentration of 50 μg/mL. Cell populations were analyzed on a Benton Dickinson LSR II cell flow cytometer.

[8] = test system: U937 human lymphoma cells; experiment: Cell death assay in U937 cells (sulforhodamine B, 72 h); assay type: cell-based; settings: Homo sapiens, U-937, 72 h
Procedure: To each well was added 2 μL of 100× compound stock solutions in DMSO at varying concentrations so that the cells were treated with concentrations between 0 μM and 100 μM compound. Each concentration was tested in quintuplicate. In each plate 5 wells received 10 μM etoposide as a positive control and 5 wells received 2 μL of DMSO as a negative control. […] 1 Specifically, to each well of the plate was added 50 μL of an 80% (w/v) solution of TCA in H2O and the plates were allowed to rest at 4° C. overnight. The plates were then washed gently with a steam of H2O five times to remove the excess TCA and precipitated serum proteins. […] After staining, the wells were gently washed 5 times with 100 μL of 1% (v/v) acetic acid to remove the unbound dye. The plates were then allowed to air dry. […] The OD was then read at 510 nm in a Molecular Dynamics plate reader and the percent cell death calculated and normalized to the positive control (100% cell death) and the negative control (0% cell death). The percent cell death was averaged for each compound concentration and plotted as a function of compound concentration. The data were fit to a logistical dose response curve using Table curve 2D and the IC50 value was calculated. The experiment was repeated three times and the average of the calculated IC50 values was reported. The standard error of the mean (SEM) was determined and reported for the triplicate experiments.
U-937 cells grow in culture as a suspension.

GL-1 = experiment: Cytotoxicity in GL-1 cells (sulforhodamine B, 72 h); assay type: cell-based; settings: Canis lupus familiaris, GL-1, Dog Lymphoma

For `c1ccc(CN(CCN(Cc2ccccn2)Cc2ccccn2)Cc2ccccn2)nc1` [TPEN, N,N,N′,N′-tetrakis (2-pyridylmethyl)ethylenediamine], the Neurotoxicity (mice) is given as “severe neurotoxicity in mice at low concentrations and rapid death at higher concentrations”.
In the case of `C=CCc1cccc(/C=N/NC(=O)CN2CCN(Cc3ccc(S(N)(=O)=O)cc3)CC2)c1O` [S-PAC-1, (E)-4-((4-(2-(2-(3-allyl-2-hydroxybenzylidene)hydrazinyl)-2-oxoethyl)piperazin-1-yl)methyl)benzenesulfonamide], the “time to steady state from beginning of infusion” value [1] is reported as no more than 6 h, the “Solubility in β-Cyclodextran (mg β-CD/μmol Compound)” value [2] is reported as 3.5 mg β-CD/μmol Compound and the “enzymatic activity of uncleavable procaspase-3 (D3A)” value [3] is reported as “rapidly (within 5 minutes) enhances the enzymatic activity of the proenzyme”. The concentration at 24 h [4] was roughly 15 µM and the “S-PAC-1 in the blood at 4 hours post injection” value [5] was “no S-PAC-1 remaining in the blood”.
With `C=CCc1cccc(/C=N/NC(=O)CN2CCN(Cc3ccccc3)CC2)c1O` [PAC-1] the IC50 (EL-4) was 3.8 ± 0.9 µM, the IC50 (17-71) was 2.5 ± 0.9 µM and the “toxicity at higher doses” value ([6]; dog, formulation with 2-hydroxypropyl-β-cyclodextrin) was “acute neurological toxicity (ataxia and seizure)”. The duration of neurotoxicity ([6]; one hound dog, 60 mg/kg i.v.) was 20 min, the Neurotoxicity (C57/BL6 mice; 12.5 mg/kg) was “No” and the Neurotoxicity (C57/BL6 mice; 37.5 mg/kg) was “Yes”. The “clinical signs of toxicity” value (C57/BL6 mice; mice, 10 mg/kg i.v., observed 24 hours) was “no clinical signs of toxicity were observed”, the “clinical signs of toxicity” value (C57/BL6 mice; mice, 20 mg/kg i.v.) was “mild neurological symptoms including lethargy, and mild ataxia” and the “persistence of symptoms after injection” value (C57/BL6 mice; mice, 20 mg/kg i.v.) was 20 min. For the same molecule, the “ataxia (incidence)” value (C57/BL6 mice; mice, 30 mg/kg i.v.) was 3/3, the “clinical signs of toxicity” value (C57/BL6 mice; mice, 30 mg/kg i.v.) was “overt signs of neurotoxicity” and the duration of neurotoxicity (C57/BL6 mice; mice, 30 mg/kg i.v.) was “approximately 15 minutes”. The “loss of balance (incidence)” value (C57/BL6 mice; mice, 30 mg/kg i.v.) was 3/3, the “onset of neurotoxicity after injection” value (C57/BL6 mice; mice, 30 mg/kg i.v.) was no more than 5 min and the “spasms (incidence)” value (C57/BL6 mice; mice, 30 mg/kg i.v.) was 1/3. For the same molecule, the “clinical signs of toxicity” value (C57/BL6 mice; mice, 50 mg/kg i.v.) was “acute neurotoxic symptoms with more pronounced ataxia and loss of balance”, the solubility ([7]; aqueous 200 mg/mL 2-hydroxypropyl-β-cyclodextrin solution, aqueous with cosolvent or surfactant or cyclodextrin, aqueous 200 mg/mL solution of 2-hydroxypropyl-β-cyclodextrin) was 20 mg/mL (≈ 51 mM) and the stability in solution ([7]; stored at 4° C., pH 5-6) was “at least 5 days”. The IC50 (HeLa) was 15.5 ± 3.8 µM, the IC50 (SK-Mel-5) was 11.5 ± 3.6 µM and the “Solubility in β-Cyclodextran (mg β-CD/μmol Compound)” value [2] was 5.3 mg β-CD/μmol Compound. The IC50 (OSW) was 8.6 ± 1.3 µM, the IC50 (MDA-MB-231) was 9.9 ± 1 µM and the IC50 (Jurkat) was 5.7 ± 2.8 µM. For the same molecule, the “apoptosis (annexin V staining)” value (U-937 cells) was roughly 40%, the IC50 ([8]; read-out: IC50 Value (μM), U-937, Human Lymphoma, 72 hours) was 9.3 ± 0.5 µM and the IC50 ([8]; read-out: U937 (IC50 μM), 72 h exposure, sulforhodamine B assay) was 4.8 ± 1 µM. For the same molecule, the IC50 (GL-1) was 4.9 ± 0.3 µM.
